For three molecules, Activity, IC50 and Drug uptake results are on record in ChEMBL document CHEMBL4346678, “Synthesis and anti-cancer evaluation of folic acid-peptide- paclitaxel conjugates for addressing drug resistance” (Eur J Med Chem, 2019).

The source made the active and inactive calls. No cut-off for these calls is given here. Residues, ends and D or L forms follow the SMILES beside them. *: point of attachment. X1 = CC(=O)O[C@H]1C(=O)[C@@]2(C)[C@H]([C@H](OC(=O)c3ccccc3)[C@]3(O)C[C@H](OC(=O)[C@H](OC(=O)CCCCCN4C(=O)CC(*)C4=O)[C@@H](NC(=O)c4ccccc4)c4ccccc4)C(C)=C1C3(C)C)[C@]1(OC(C)=O)CO[C@@H]1C[C@@H]2O

Data set [1] deals with MCF7/PTX. The data set is described as follows: Induction of apoptosis in human MCF7/PTX cells assessed as early apoptotic cells at 3 uM incubated for 12 hrs by Annexin V-FITC/propidium iodide staining based flow cytometric analysis (reference value: 1.1%). In kind it is functional. On the technique in general: A flow cytometer gives signals particle by particle.
For data set [2], the system named is MCF7/PTX. The data set is described as follows: Cytotoxicity against human MCF7/PTX cells at 1 to 6 uM incubated for 48 hrs by MTT assay. In kind it is functional, cell-based. (Formazan colour is commonly taken as a measure of viable cells.)
Data set [3] deals with MCF7/PTX. The data set is described as follows: Induction of apoptosis in human MCF7/PTX cells assessed as late apoptotic cells at 3 uM incubated for 12 hrs by Annexin V-FITC/propidium iodide staining based flow cytometric analysis (reference value: 0.9%). It is filed as functional.
The test system of data set [4] is MCF7/PTX. The data set is described as follows: Induction of membrane disruption in human MCF7/PTX cells incubated for 12 hrs by LDH release assay. In kind it is functional, cell-based. In general terms: LDH in the medium is a marker of cell lysis.
Another data set deals with A2780. The data set is described as follows: Cytotoxicity against human A2780 cells incubated for 48 hrs by MTT assay. In kind it is functional, cell-based. The conditions noted are these: A2780, 48 h.
Another data set has as its system Erythrocyte. The data set is described as follows: Hemolytic activity in Wistar rat erythrocytes incubated for 1 hr. It is filed as ADME, cell-based.
In another data set the test system is K562. The data set is described as follows: Cytotoxicity against human K562 cells incubated for 48 hrs by MTT assay. In kind it is functional, cell-based. The note with it: K562, 48 h.
A further data set has as its system SK-OV-3. The data set is described as follows: Cytotoxicity against human SKOV3 cells incubated for 48 hrs by MTT assay. It is filed as functional, cell-based. The conditions noted are these: SK-OV-3, 48 h.
A short description of data set [5]: Drug uptake in human MCF7/PTX cells at 1 to 6 uM incubated for 2 hrs using FITC-labelled compound by flow cytometric analysis. It is filed as ADME, cell-based.
Data set [6] deals with MCF7/PTX. The data set is described as follows: Cytotoxicity against human MCF7/PTX cells incubated for 48 hrs by MTT assay. In kind it is functional, cell-based.
In a further data set the test system is HUVEC. The data set is described as follows: Cytotoxicity against HUVEC incubated for 48 hrs by MTT assay. It is filed as cell-based. The conditions noted are these: Homo sapiens.
Data set [7] has as its system MCF7/PTX. The data set is described as follows: Induction of apoptosis in human MCF7/PTX cells assessed as necrotic cells at 3 uM incubated for 12 hrs by Annexin V-FITC/propidium iodide staining based flow cytometric analysis (reference value: 2.1%). In kind it is functional.
The subject of data set [8] is MCF7/PTX. The data set is described as follows: Induction of membrane disruption in human MCF7/PTX cells at 3 uM incubated for 12 hrs by AO/EB double staining based fluorescence microscopic method. In kind it is functional, cell-based.
Data set [9] relates to MCF7/PTX. The data set is described as follows: Induction of apoptosis in human MCF7/PTX cells assessed as live cells at 3 uM incubated for 12 hrs by Annexin V-FITC/propidium iodide staining based flow cytometric analysis (reference value: 95.9%). In kind it is functional.
The test system of a further data set is MCF7. The data set is described as follows: Cytotoxicity against human MCF7 cells incubated for 48 hrs by MTT assay. It is filed as functional, cell-based. The note with it: MCF7, 48 h.

By IC50 is commonly meant the concentration at which inhibition is half-maximal. Regarding `CC(=O)O[C@H]1C(=O)[C@@]2(C)[C@H]([C@H](OC(=O)c3ccccc3)[C@]3(O)C[C@H](OC(=O)[C@H](OC(=O)CCCCCN4C(=O)CC(SC[C@H](NC(=O)[C@H](CCCCN)NC(=O)[C@H](CCCCN)NC(=O)[C@H](CC(C)C)NC(=O)[C@H](CCCCN)NC(=O)[C@H](CCCNC(=N)N)NC(=O)[C@H](Cc5ccccc5)NC(=O)[C@H](Cc5ccccc5)NC(=O)[C@H](CCCCN)NC(=O)[C@H](CCCCN)NC(=O)[C@H](Cc5ccccc5)NC(=O)[C@H](CCCNC(=N)N)NC(=O)[C@H](CCCCN)NC(=O)[C@@H](NC(=O)[C@@H](N)CC(C)C)C(C)C)C(=O)N[C@H](C(=O)N[C@@H](CC(C)C)C(=O)N[C@@H](CC(C)C)C(N)=O)C(C)C)C4=O)[C@@H](NC(=O)c4ccccc4)c4ccccc4)C(C)=C1C3(C)C)[C@]1(OC(C)=O)CO[C@@H]1C[C@@H]2O` (stereo partly drawn) (H-LVKRFKKFFRKLKKC(X1)VLL-NH2), the Activity was 2.2% in the data set with MCF7/PTX [1]; 20.2% in the data set with MCF7/PTX [3]; “Dose-dependent effect” in the data set on MCF7/PTX [4]; “Toxic” in the data set on Erythrocyte; 3.2% with MCF7/PTX [7]; 74.4% in the data set on MCF7/PTX [9]. Besides, the outcome in the data set with MCF7/PTX [2] was inactive. Moreover, the half-maximal inhibitory concentration (IC50) with A2780 was determined as 2.69 µM; in the data set with K562 it was 5.9 µM; in the data set on SK-OV-3, 7.17 µM; in the data set with MCF7/PTX [6] it was 6.11 µM; with HUVEC it was 31.6 µM; with MCF7, 2.15 µM. For the same molecule, the Drug uptake result in [5] was “Active”. Besides, in the data set on MCF7/PTX [8], the outcome was Active.
Consider `CC(=O)O[C@H]1C(=O)[C@@]2(C)[C@H]([C@H](OC(=O)c3ccccc3)[C@]3(O)C[C@H](OC(=O)[C@H](OC(=O)CCCCCN4C(=O)CC(SC[C@H](NC(=O)[C@H](CCCNC(=N)N)NC(=O)[C@H](CCCNC(=N)N)NC(=O)[C@H](CC(C)C)NC(=O)[C@H](CCCNC(=N)N)NC(=O)[C@H](CCCNC(=N)N)NC(=O)[C@H](Cc5ccccc5)NC(=O)[C@H](Cc5ccccc5)NC(=O)[C@H](CCCNC(=N)N)NC(=O)[C@H](CCCNC(=N)N)NC(=O)[C@H](Cc5ccccc5)NC(=O)[C@H](CCCNC(=N)N)NC(=O)[C@H](CCCNC(=N)N)NC(=O)[C@@H](NC(=O)[C@@H](N)CC(C)C)C(C)C)C(=O)N[C@H](C(=O)N[C@@H](CC(C)C)C(=O)N[C@@H](CC(C)C)C(N)=O)C(C)C)C4=O)[C@@H](NC(=O)c4ccccc4)c4ccccc4)C(C)=C1C3(C)C)[C@]1(OC(C)=O)CO[C@@H]1C[C@@H]2O` (stereo partly drawn) (H-LVRRFRRFFRRLRRC(X1)VLL-NH2), for which the Activity with MCF7/PTX [1] is 1.7%; with MCF7/PTX [3], 30.2%; with MCF7/PTX [4], “Dose-dependent effect”; with Erythrocyte it was “Toxic”; with MCF7/PTX [7], 3.6%; in the data set on MCF7/PTX [9], 64.7%. For the same molecule, the IC50 with A2780 was 2.79 µM; in the data set with K562 it was 3.82 µM; with SK-OV-3 it was 6.61 µM; in the data set on MCF7/PTX [6], 5.53 µM; in the data set on HUVEC, 37.2 µM; in the data set on MCF7, 1.98 µM. In addition, in the data set with MCF7/PTX [8], the result was Active.
Turning to H-LVKRFKKFFRKLKKCVLL-NH2, the Activity in the data set on MCF7/PTX [1] was 1.6%; in the data set on MCF7/PTX [3] it was 2.6%; in the data set on MCF7/PTX [7], 4.6%; in the data set on MCF7/PTX [9], 91.1%. Moreover, the half-maximal inhibitory concentration (IC50) with A2780 is 13.6 µM; with K562, 13.7 µM; in the data set with SK-OV-3 it was 14.7 µM; with MCF7/PTX [6], 15.2 µM; in the data set with HUVEC, 40.2 µM; in the data set on MCF7, 12.3 µM.
